# Test results taken from patent publication US10864261B2, “Synthetic vaccines against Streptococcus pneumoniae serotype 2” (Max-Planck-Gesellschaft zur Förderung der Wissenschaften …, priority 2015, dated 2020).
# Test system: synthetic oligosaccharides and native S. pneumoniae serotype 2 capsular polysaccharides printed on slides
# Details: mice s.c., pooled sera
# Description: On day 14 and 28 mice were received a booster injection with the same amount of antigen emulsified with 1:1 (v/v) alum. […] Mice were bled submandibular weekly using sterile single-use blood lancet. Control mice received only PBS and PBS in alum. The antibody responses were measured in both sera by glycan microarray and ELISA.
# Preparation of microarrays slides: The CodeLink NHS activated glass slides (Surmodics) were spotted with synthetic glycans and native polysaccharides at two different concentration (100 μM and 200 μM) in printing buffer (50 mM sodium phosphate, pH 8.5) by using a S3 piezoelectric microarray printer (Scienion) equipped with a type 4 coated nozzle. The relative humidity of spotted chamber was constantly maintained at 65%. The spotted slides were incubated over night at room temperature in a humidifying chamber. […]
# Microarray binding assays: The printed slides were blocked with PBS-BSA (1%) for 1 h at room temperature and washed 3 times with PBS. […] Slides were incubated with a fluorescence-labeled goat anti-mouse secondary antibodies (Life Technologies) diluted in 1% BSA in PBS (w/v) in a humid chamber for 1 h at room temperature, washed three times with PBST, rinsed once with deionized water and dried by centrifugation (300×g, 5 min) prior to scanning with a GenePix 4300A microarray scanner (Molecular Devices, Sunnyvale, Calif., USA). […]
compound,measurement,setting,value
"C[C@@H]1O[C@H](O[C@H]2[C@H](O)[C@@H](O)[C@H](O[C@@H]3[C@@H](O)[C@H](C)O[C@@H](O[C@@H]4[C@@H](O)[C@H](C)O[C@@H](OCCCCCN)[C@@H]4O)[C@@H]3O[C@H]3O[C@H](CO[C@H]4O[C@H](C(=O)O)[C@@H](O)[C@H](O)[C@H]4O)[C@@H](O)[C@H](O)[C@H]3O)O[C@@H]2CO)[C@H](O)[C@H](O)[C@H]1O [hexasaccharide 2, 5-amino pentyl β-L-rhamnopyranosyl-(1→4)-β-D-glucopyranosyl-(1→3)-α-L-{α-D-glucopyranosyl uronate-(1→6)-α-D-glucopyranosyl-(1→2)}rhamnopyranosyl-(1→3)-α-L-rhamnopyranoside]",antibody response specific to hexasaccharide 2 / core glycan structures (immunogenicity),"3 μg sugar per dose with alum 1:1, boosts day 14 and 28, anti-mouse IgG",immunogenic in mice
same,cross-reactivity of raised antibodies with other fragments of hexasaccharide 2 printed on the slides,3 μg sugar per dose with alum 1:1,induces cross-reactive antibodies
